Laboratory results from patent publication US20080021024A1, “Metalloprotease inhibitors” (Alantos Pharmaceuticals Holding, Inc., priority 2006, published 2008).

The compounds below were run against T1, catalytic domain of MMP-13 enzyme (Homo sapiens, UniProt P45452) (assay: Assay for determining MMP-13 inhibition (fluorescent substrate)). Conditions: Table 1, Summary of MMP-13 Activity for Compounds of Formula I.
T1 construct: 10 μL of a 50 nM stock solution of catalytic domain of MMP-13 enzyme (produced by Alantos) is added; made in house
Format: biochemical
Method: The MMP-13 inhibiting activity of the MMP-13 inhibiting compounds of the present invention may be measured using any suitable assay known in the art. A standard in vitro assay for MMP-13 inhibiting activity is described in Example 3000.
The typical assay for MMP-13 activity is carried out in assay buffer comprised of 50 mM Tris, pH 7.5, 150 mM NaCl, 5 mM CaCl2 and 0.05% Brij-35. Different concentrations of tested compounds are prepared in assay buffer in 50 μL aliquots. 10 μL of a 50 nM stock solution of catalytic domain of MMP-13 enzyme (produced by Alantos) is added to the compound solution. The mixture of enzyme and compound in assay buffer is thoroughly mixed and incubated for 10 min at room temperature. Upon the completion of incubation, the assay is started by addition of 40 μL of a 12.5 μM stock solution of MMP-13 fluorescent substrate (Calbiochem, Cat. No. 444235). The time-dependent increase in fluorescence is measured at the 320 nm excitation and 390 nm emission by automatic plate multireader. The IC50 values are calculated from the initial reaction rates.

IC50 [µM]	SMILES
< 1	Cc1cc(CNC(=O)c2cc(NS(=O)(=O)Cc3ccc(-c4nn[nH]n4)cc3)ncn2)ccc1F
> 0.005	O=C(NCc1ccc(-c2nnn[nH]2)cc1)c1cc(NS(=O)(=O)Cc2ccccc2)ncn1
< 1	O=C(Cc1ccc2c(c1)CCO2)Nc1cc(C(=O)NCc2ccc(-c3nnn[nH]3)cc2)ncn1
> 0.005	CS(=O)(=O)c1ccc(CC(=O)Nc2cc(C(=O)NCc3ccc(-c4nnn[nH]4)cc3)ncn2)cc1

Continued, compound first:

SMILES	IC50 [µM]
CC(C(=O)Nc1cc(C(=O)NCc2ccc(F)cc2)ncn1)c1ccc(-c2nnn[nH]2)cc1 (centres unmarked)	> 0.005
N#Cc1ccc(CC(=O)Nc2cc(C(=O)NCc3ccc(F)cc3)ncn2)cc1	< 1
CC(C)(C(=O)Nc1cc(C(=O)NCc2ccc(F)cc2)ncn1)c1ccc(-c2nnn[nH]2)cc1	< 1
N#Cc1ccc(CNC(=O)c2cc(NC(=O)Cc3ccc4c(c3)OCO4)ncn2)cc1	< 1
